Measurements published in patent EP4778531A1, “MUSCLE RELAXANT ANTAGONIST FOR REVERSAL FOR BENZYLISOQUINOLINE MUSCLE RELAXANT” (priority 2023, dated 2025).

Tests used:
[1] = system: cisatracurium-induced guinea pig muscle relaxation model; experiment: Arterial blood pressure and heart rate in the cisatracurium muscle relaxation model; assay type: in vivo, Hartley guinea pigs
Protocol: Ninety (90) qualified Hartley guinea pigs, male, were used. Sixty (60) animals were randomly divided into 6 experimental groups based on body weight using a stratified random method: negative control group, positive control group, low-dose test group, medium-dose test group, high-dose test group, and combination group, with 10 animals per group (n=10). The remaining animals served as spares. The negative control group received 0.9% sodium chloride. The positive control group received 0.0625 mg/kg neostigmine methylsulfate (referred to as neostigmine). The low-dose test group received 10 mg/kg adamgammadex sodium. The medium-dose test group received 20 mg/kg adamgammadex sodium. The high-dose test group received 40 mg/kg adamgammadex sodium. The combination group received 10 mg/kg adamgammadex sodium and 0.03125 mg/kg neostigmine. The administration volume for all groups was 1 mL/kg.
Adaptive feeding was conducted after the quarantine period. On the day of the experiment, guinea pigs were weighed, administered atropine (0.1 mg/kg) intramuscularly, and then anesthetized with an intraperitoneal injection of anesthetic (pentobarbital sodium 10 mg/kg, urethane 1000 mg/kg). After fixation, the animals were intubated and connected to a small animal ventilator. Both external jugular veins and the right carotid artery were cannulated. The left jugular vein was used for cisatracurium infusion, the right jugular vein for injection of different test substances, and the carotid artery was connected to a multi-channel physiological signal acquisition and processing system for continuous monitoring of arterial blood pressure and heart rate. Electrode patches were subcutaneously placed behind the left femur and tibia of the guinea pig, and two stimulating electrodes of the neuromuscular monitor were fixed to the two electrode patches. The left hind paw was fixed on a custom-made platform. A sensor was fixed to the skin surface over the gastrocnemius muscle of the left hind limb, and a skin temperature probe was fixed to a flat area of skin. Continuous single-twitch stimulation was applied at 1 Hz. After the twitch height stabilized, the mode was switched to train-of-four stimulation (TOF mode, stimulus current 5 mA, frequency 2 Hz, pulse width 0.2 ms, interval between trains 15 s) for at least 5 min. Calibration was then performed using Calibration Mode 2, followed by TOF mode stimulation. After obtaining a stable stimulation response for at least 2 min, cisatracurium solution was infused intravenously using a dual-channel micro-infusion pump, and the start time of infusion was recorded. […] At this point, cisatracurium infusion was stopped. After stopping the infusion, neuromuscular function was allowed to recover spontaneously. When neuromuscular function reached moderate recovery, the test drug formulation was administered intravenously. Neuromuscular function was allowed to recover completely, and the administration time was recorded (Figure 1). Using the time of spontaneous recovery to moderate neuromuscular function (TOF50) as zero point, the times for recovery from TOF50 to TOF75, TOF75 to TOF90, and TOF50 to TOF90 were calculated for each animal (Table 1-2). Arterial blood pressure (systolic, diastolic, mean arterial pressure) and heart rate were recorded before cisatracurium infusion, at the time cisatracurium infusion was stopped, at the time of moderate neuromuscular recovery, and at the time of complete neuromuscular function recovery (Tables 3-7). Data were expressed as Mean ± SD. Statistical T-tests were performed using SPSS software to evaluate differences in blood pressure, heart rate, and residual neuromuscular blockade recovery times. P < 0.05 was considered statistically significant.

[2] = system: Hypersensitivity-Related Factors; experiment: Antibody array (Ary028 immune chip kit): hypersensitivity-related factors after repeated dosing; assay type: in vivo; settings: ICR mice; tail vein once daily for 5 days; Adamgammadex sodium 1 g/kg, Sugammadex sodium 1 mg/kg, Neostigmine 0.3 mg/kg; pooled plasma of 2 mice; N.D. = below minimum detection limit
Protocol: An antibody array is a type of protein chip characterized by miniaturization, integration, and high throughput. It can be used to detect the expression abundance of proteins related to a specific physiological or pathological process. The principle involves arranging capture antibodies on a membrane or glass slide, incubating with the sample, adding biotin-labeled antibodies against the target proteins, and finally using HRP-streptavidin or fluorescein-streptavidin to detect the chip signal. Signals are detected using chemiluminescence or HiLyte™ Fluor 555-streptavidin.
In this experiment, ICR mice were randomly divided into a blank group, Adamgammadex sodium (1 g/kg) group, Sugammadex sodium (1 mg/kg) group, and Neostigmine (0.3 mg/kg) group, with 2 mice per group. Mice in each group given the corresponding dosage of compound via the tail vein once daily for 5 consecutive days. On the last day after administration, plasma from the 2 animals per group was mixed and detected using the Ary028 immune chip kit. Specific detection steps were as follows: • (1) Sample volume determination: 200 µL serum sample per Array unit. (2) Blocking protein chip: Each membrane was blocked with 2 mL of corresponding Array Buffer, incubated on a shaker for 1 hour. (3) Sample processing: Samples were diluted with corresponding Array Buffer to a volume of 1.5 mL per membrane, the corresponding Array unit was added, and incubated overnight with the Array protein membrane at 4°C. (4) Membranes were washed three times with corresponding Wash buffer, then diluted detection antibody was added and incubated at room temperature for 1 h. (5) Membranes were washed three times with corresponding Wash buffer, streptavidin-HRP was added and incubated for 30min at room temperature with shaking. (6) Membranes were washed three times with corresponding Wash buffer, 1 mL of chemiluminescent reagent was added to each well, and developed on a chemiluminescence imager. (7) Fluorescence intensity was used to represent the relative concentration of the corresponding protein.

[3] = positive control group, 0.0625 mg/kg i.v.

## CN(C)C(=O)Oc1cccc([N+](C)(C)C)c1 [Neostigmine, neostigmine methylsulfate]
[1]; 0.0625 mg/kg
  effect on heart rate (in words): significant side effect of lowering heart rate
[1]; 0.0625 mg/kg neostigmine, positive control group, summary statement
  heart rate decrease: approximately 30%
[1]; [3]
  Heart rate Administration: 238+42 bmp
  Heart rate Complete Recovery: 157±49 bmp
  Heart rate Moderate Recovery: 181±54 bmp
  Heart rate Muscle Relaxation End: 239+11 bmp
  Heart rate Muscle Relaxation Start: 240+14 bmp
  Mean Arterial Pressure mAP Administration: 68+12 mmHg
  Mean Arterial Pressure mAP Complete Recovery: 67+15 mmHg
  Mean Arterial Pressure mAP Moderate Recovery: 69+12 mmHg
  Mean Arterial Pressure mAP Muscle Relaxation End: 63+8 mmHg
  Mean Arterial Pressure mAP Muscle Relaxation Start: 62+11 mmHg
  Mean Diastolic Pressure mDP Administration: 60+10 mmHg
  Mean Diastolic Pressure mDP Complete Recovery: 58+15 mmHg
  Mean Diastolic Pressure mDP Moderate Recovery: 61+12 mmHg
  Mean Diastolic Pressure mDP Muscle Relaxation End: 57+6 mmHg
  Mean Diastolic Pressure mDP Muscle Relaxation Start: 56±9 mmHg
  Mean Pulse Pressure Administration: 17±8 mmHg
  Mean Pulse Pressure Complete Recovery: 19+6 mmHg
  Mean Pulse Pressure Moderate Recovery: 19±8 mmHg
  Mean Pulse Pressure Muscle Relaxation End: 14±5 mmHg
  Mean Pulse Pressure Muscle Relaxation Start: 15+4 mmHg
  Mean Systolic Pressure mSP Administration: 76±15 mmHg
  Mean Systolic Pressure mSP Complete Recovery: 78±13 mmHg
  Mean Systolic Pressure mSP Moderate Recovery: 79±13 mmHg
  Mean Systolic Pressure mSP Muscle Relaxation End: 71±10 mmHg
  Mean Systolic Pressure mSP Muscle Relaxation Start: 71±12 mmHg
[1]; positive control group, 0.0625 mg/kg i.v., vs heart rate at start of muscle relaxation
  Degree of heart rate decrease at complete muscle relaxation recovery: 35%
[2]
  Fluorescence Intensity CCL11 (Eosinophil activation chemokine): 6286.81
  Fluorescence Intensity CCL12 (Monocyte chemotactic receptor 5): 5003.37
  Fluorescence Intensity GM-CSF (Granulocyte-macrophage colony-stimulating factor): 1679.67
  Fluorescence Intensity IL-1α (Interleukin 1α): 1891.15
  Fluorescence Intensity IL-1β (Interleukin 1β): 1087.46
  Fluorescence Intensity IL-3 (Interleukin 3): 1133.66
  Fluorescence Intensity IL-4 (Interleukin 4): 3939.66
  Fluorescence Intensity IL-5 (Interleukin-5): 1864.09
  Fluorescence Intensity IL-6 (Interleukin-6): 2321.39
  Fluorescence Intensity IL-15 (Interleukin-15): 1503.8
  Fluorescence Intensity TNF-α (Tumor necrosis factor): 1116.77
